# Laboratory results taken from patent US20230087865A1, “PHARMACEUTICAL COMPOSITION FOR ORAL ADMINISTRATION” (HK INNO. N CORPORATION, priority 2020, published 2023).
# Counter-ions that a name gives are not always drawn.
# Test: Evaluation of compatibility between tegoprazan and clopidogrel sulfate (2 weeks, HDPE bottle)
# Format: physicochemical
# Conditions: for content, component in mixture: mixture of tegoprazan and clopidogrel sulfate
# Method: Example 1. Evaluation of Compatibility Between Tegoprazan and Clopidogrel Sulfate
# According to Table 1 above, in order to examine the effect of each of tegoprazan and clopidogrel hydrogen sulfate, compatibility therebetween was evaluated under storage conditions according to the ICH guideline recommendations and drug safety test regulations.
# It was shown that, when the two components came into direct contact with each other under each storage condition, the contents of the two components decreased.
# [1] = 2 weeks, Accelerated conditions (40° C./RH 75 ± 5%)
# [2] = 2 weeks, Stressed conditions (60° C./RH 75 ± 5%)
compound,measurement,setting,value
"COC(=O)[C@H](c1ccccc1Cl)N1CCc2sccc2C1 [Clopidogrel sulfate, methyl (+)-(S)-α-(2-chlorophenyl)-6,7-dihydrothieno[3,2-c]pyridine-5(4H)-acetate]","content, component alone",[1],101.1%
same,"content, component alone",[2],98.3%
same,"content, component alone",Initial (room temperature),100.2%
same,"content, component in mixture",[1],78.9%
same,"content, component in mixture",[2],49.0%
same,"content, component in mixture",Initial (room temperature),100.3%
"Cc1nc2cc(C(=O)N(C)C)cc(O[C@H]3CCOc4cc(F)cc(F)c43)c2[nH]1 [Tegoprazan, (S)-4-((5,7-difluorochroman-4-yl)oxy)-N,N,2-trimethyl-1H-benzo[d]imidazole-6-carboxamide]","content, component alone",[1],100.3%
same,"content, component alone",[2],99.1%
same,"content, component alone",Initial (room temperature),99.8%
same,"content, component in mixture",[1],92.0%
same,"content, component in mixture",[2],10.5%
same,"content, component in mixture",Initial (room temperature),99.7%
